From publication PMC8145327, “S100P Interacts with p53 while Pentamidine Inhibits This Interaction” (Biomolecules, 2021) come the findings set out here.

This experiment concerns the target T1, S100P (Homo sapiens, UniProt P25815).
T1 construct: 15N-labeled human S100P (95 amino acid residues)
T1 sequence (P25815 1-95): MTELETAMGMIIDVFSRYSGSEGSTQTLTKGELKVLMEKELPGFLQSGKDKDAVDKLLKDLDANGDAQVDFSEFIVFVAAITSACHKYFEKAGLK
Put plainly: 1H-15N HSQC NMR titration (chemical shift perturbation). Type of experiment: binding.

SMILES strings stand for the structures.

For the compound `N=C(N)c1ccc(OCCCCCOc2ccc(C(=N)N)cc2)cc1` [pentamidine], the Kd (usually the concentration at which binding is half-saturated) was 48.7 µM.
